From PubChem BioAssay AID2060351 (Molecular Pharmacology Branch, DTP, NCI, 2025) come the findings set out here.

For this experiment, the system named is 521955-158-R7-J2-PDC spheroids, viability % test/control. The experiment in a line: Anticancer human tumor 521955-158-R7-J2-PDC patient-derived pancreatic carcinoma cell line growth inhibition [TAK]. Particulars: spheroids with HUVEC and MSC; for viability, T/C: stronger effect = lower value. The text has this: Combinatorial screen of targeted agents with TAK-243 and ipatasertib in multi-cell type tumor spheroids
A high-throughput screen of multi-cell type tumor spheroids was designed to identify active combinations of targeted small molecules and TAK-243 or ipatasertib. Complex spheroids include a stromal component modeled by human endothelial cells (HUVEC) and fibroblasts modeled by human mesenchymal stem cells (MSCs). The concentration ranges selected for each drug and investigational agent were based upon clinically achievable concentrations if the clinical Cmax of the agent was known.
Compounds. The drugs and investigational agents: TAK-243 (785004), ipatasertib (767898), everolimus (733504), selumetinib (741078), bortezomib (756655), trametinib (758246), ixazomib (758254), vemurafenib (761431), dabrafenib (764134), sapanisertib (764658), alpelisib (765974), and copanlisib (816437), were obtained from the National Cancer Institute (NCI) Developmental Therapeutics Program Chemical Repository. The FDA-approved anticancer drug set is available from the NCI Developmental Therapeutics Program. […] The stock solutions were prepared in dimethyl sulfoxide (DMSO, Sigma-Aldrich, St. Louis, MO, cat. D2650) at 800-fold the tested concentration and stored at -70 degrees C prior to their use. All drugs and investigational agents were tested over a range starting from a high concentration at or near the clinical Cmax and decreasing in half-log increments. If the clinical Cmax for an agent had not been determined, the highest concentration tested was 10 microM.
NCI60 Cell Culture. NCI60 cell lines were obtained from the NCI Developmental Therapeutics Program Tumor Repository. For each lot of cells, the Repository performed Applied Biosystems AmpFLSTR Identifiler testing with PCR amplification to confirm consistency with the published Identifier STR profile for each cell line. Cells were kept in continuous culture for no more than 20 passages. The optimal seeding densities for each of the cell lines at each time point assessed were determined prior to performing the concentration response studies. Briefly, the NCI60 human tumor lines were grown as monolayers in RPMI 1640 medium supplemented with 10% FBS and 2 mmol/L L-glutamine.
An additional 2 lines were from the NCI60 cell line panel including melanomas, MALME-3M and SK-MEL-2. Pooled donor human umbilical vein endothelial cells (HUVEC, Lonza, cat. CC-2519) and human mesenchymal stem cells (hMSC, Lonza, cat. PT-2501) were purchased from Lonza (Walkersville, MD).
PDMR cell lines were grown in complete medium (DC medium): Dulbecco's modified Eagle's medium (DMEM)/F12 supplemented with 5% fetal bovine serum (FBS), 2 mM L-glutamine, 100 U/mL penicillin and 100 µg/ml streptomycin, 0.4 µg/ml hydrocortisone, 10 ng/ml epidermal growth factor (EGF) recombinant human protein, 24 µg/mL adenine, and 0.1 mg/mL primocin. During culture from frozen stock vials, PDMR cells were cultured in the same medium containing 10 µM Y-27632 (see Table 3). The PDCs were cultured in complete DMEM/F12 media without 10 microM Y-27632 dihydrochloride for at least two passages prior to the screen. The pooled donor HUVEC and hMSC were cultured in endothelial cell growth medium 2 (PromoCell, Heidelberg, Germany, cat. C-22011) and mesenchymal stem cell growth medium 2 (PromoCell, cat. C-28009), respectively. For all experiments, HUVEC and hMSC were used at passages </=5.
For the pre-screen, cell seeding densities were determined from a titration spanning the range from 5,000 to 313 cells per well. The mct-spheroids including 60% malignant cells, 25% HUVEC and 15% MSC dispensed as a mixture into U-bottom Ultra-Low Attachment 384-well plates (Corning, NY)
High-throughput Drug Combination Screening.
Prior to their inoculation into 384-well plates, malignant cells, HUVEC, and hMSC were removed from T flasks using TrypLE express (Thermo Fisher Scientific, cat. 12605036) and harvested by centrifugation for 5 min at 233 x g. […]

Setting [1] is: curve of first compound, second compound 0.3 µM.
[2] abbreviates: curve of first compound, second compound 0.949 µM.
[3] abbreviates: curve of first compound, second compound 3 µM.
Setting [4] is: curve of first compound, second compound 9.49 µM.
[5] abbreviates: curve of first compound, second compound 30 µM.
[6] abbreviates: second compound 0.3 µM, first compound 0.000316 µM.
The mark [7] stands for this setting: second compound 0.3 µM, first compound 0.001 µM.
[8] abbreviates: second compound 0.3 µM, first compound 0.00316 µM.
[9] abbreviates: second compound 0.3 µM, first compound 0.01 µM.
[10] abbreviates: second compound 0.3 µM, first compound 0.0316 µM.
Where [11] appears, read: second compound 0.3 µM, first compound 0.1 µM.
The mark [12] stands for this setting: second compound 0.949 µM, first compound 0.000316 µM.
Where [13] appears, read: second compound 0.949 µM, first compound 0.001 µM.
The mark [14] stands for this setting: second compound 0.949 µM, first compound 0.00316 µM.
The mark [15] stands for this setting: second compound 0.949 µM, first compound 0.01 µM.
Setting [16] is: second compound 0.949 µM, first compound 0.0316 µM.
The mark [17] stands for this setting: second compound 0.949 µM, first compound 0.1 µM.
Setting [18] is: second compound 3 µM, first compound 0.000316 µM.
[19] abbreviates: second compound 3 µM, first compound 0.001 µM.
Setting [20] is: second compound 3 µM, first compound 0.00316 µM.
[21] abbreviates: second compound 3 µM, first compound 0.01 µM.
Setting [22] is: second compound 3 µM, first compound 0.0316 µM.
The mark [23] stands for this setting: second compound 3 µM, first compound 0.1 µM.
Setting [24] is: second compound 9.49 µM, first compound 0.000316 µM.
Where [25] appears, read: second compound 9.49 µM, first compound 0.001 µM.
The mark [26] stands for this setting: second compound 9.49 µM, first compound 0.00316 µM.
The mark [27] stands for this setting: second compound 9.49 µM, first compound 0.01 µM.
The mark [28] stands for this setting: second compound 9.49 µM, first compound 0.0316 µM.
[29] abbreviates: second compound 9.49 µM, first compound 0.1 µM.
Setting [30] is: second compound 30 µM, first compound 0.000316 µM.
[31] abbreviates: second compound 30 µM, first compound 0.001 µM.
The mark [32] stands for this setting: second compound 30 µM, first compound 0.00316 µM.
Where [33] appears, read: second compound 30 µM, first compound 0.01 µM.
The mark [34] stands for this setting: second compound 30 µM, first compound 0.0316 µM.
Setting [35] is: second compound 30 µM, first compound 0.1 µM.

Values joined by “and” are separate entries in the source; they are usually repeats but may differ in a detail not shown here. Equal entries are not always repeated.
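Note: spheroids exposed to compound for 7 days before readout.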

One may read the viability, T/C as the ratio of treated to control. For orientation: IC50 means the point on the concentration scale where inhibition reaches its midpoint. For the compound `CC(C)NCC(C(=O)N1CCN(c2ncnc3c2C(C)CC3O)CC1)c1ccc(Cl)cc1` (stereo unspecified), the viability, T/C (compound 30 µM) is 84.2% [middle of 10 runs]. The IC50 (compound alone, run of 02/20/2020) is greater than 30000 nM.
Take `CC(C)n1nc(-c2ccc3oc(N)nc3c2)c2c(N)ncnc21` + CC(C)NCC(C(=O)N1CCN(c2ncnc3c2C(C)CC3O)CC1)c1ccc(Cl)cc1: the 50% inhibitory concentration (IC50) by setting is: under setting [1], greater than 100 nM; under setting [2], greater than 100 nM; under setting [3], greater than 100 nM; under setting [4], greater than 100 nM; under setting [5], greater than 100 nM. For the same compound, the viability, T/C under setting [6] is 112%; the viability, T/C under setting [7] was 74.7%; the viability, T/C under setting [8] was 78.8%; the viability, T/C under setting [9] is 134%; the viability, T/C under setting [10] is 98.1%; the viability, T/C under setting [11] is 69%. In addition, the viability, T/C was 118% under setting [12]; 84.9% under setting [13]; 100% under setting [14]; 75.3% under setting [15]; 99% under setting [16]; 100% under setting [17]. For the same compound, the viability, T/C was 91.3% under setting [18]; 105% under setting [19]; 86.8% under setting [20]; 94.3% under setting [21]; 132% under setting [22]; 120% under setting [23]. Moreover, the viability, T/C is 89.9% under setting [24]; 98.3% under setting [25]; 83.9% under setting [26]; 113% under setting [27]; 120% under setting [28]; 106% under setting [29]. Moreover, the viability, T/C is 102% under setting [30]; 115% under setting [31]; 103% under setting [32]; 127% under setting [33]; 117% under setting [34]; 80% under setting [35].
Turning to `CCCS(=O)(=O)Nc1ccc(F)c(C(=O)c2c[nH]c3ncc(-c4ccc(Cl)cc4)cc23)c1F`, the viability, T/C is 98.6% and 98.4% (compound 0.316 µM); 97.2% and 95.1% (compound 1 µM); 94.6% and 78.2% (compound 3.16 µM); 108% and 71% (compound 10 µM); 82.2% and 67.9% (compound 31.6 µM); 90.6% and 82.5% (compound 100 µM). For the setting “curve of compound”, the IC50 is greater than 100000 nM.
As to `CC(C)n1nc(-c2ccc3oc(N)nc3c2)c2c(N)ncnc21`, the viability, T/C was 78.4% and 94.7% (compound 0.000316 µM); 79.4% and 104% (compound 0.001 µM); 81.2% and 82.3% (compound 0.00316 µM); 86.4% and 90.7% (compound 0.01 µM); 76% and 109% (compound 0.0316 µM); 71.2% and 53.7% (compound 0.1 µM). The IC50 (curve of compound) was greater than 100 nM.
As for `COC1CC2CCC(C)C(O)(O2)C(=O)C(=O)N2CCCCC2C(=O)OC(C(C)CC2CCC(OCCO)C(OC)C2)CC(=O)C(C)C=C(C)C(O)C(OC)C(=O)C(C)CC(C)C=CC=CC=C1C` (stereo unspecified) + CC(C)NCC(C(=O)N1CCN(c2ncnc3c2C(C)CC3O)CC1)c1ccc(Cl)cc1, the IC50 was greater than 100 nM under setting [1]; greater than 100 nM under setting [2]; greater than 100 nM under setting [3]; greater than 100 nM under setting [4]; greater than 100 nM under setting [5]. The viability, T/C is 103% under setting [6]; 72.1% under setting [7]; 71.6% under setting [8]; 102% under setting [9]; 110% under setting [10]; 115% under setting [11]. Moreover, the viability, T/C is, setting by setting: under setting [12], 81.6%; under setting [13], 73.5%; under setting [14], 100%; under setting [15], 91%; under setting [16], 111%; under setting [17], 85.9%. The viability, T/C reads like this: under setting [18], 84.7%; under setting [19], 89.1%; under setting [20], 74.7%; under setting [21], 89.5%; under setting [22], 104%; under setting [23], 93.7%. For the same compound, the viability, T/C by setting is: under setting [24], 86.2%; under setting [25], 86.3%; under setting [26], 82.2%; under setting [27], 85.8%; under setting [28], 106%; under setting [29], 105%. Moreover, the viability, T/C runs as follows: under setting [30], 90.3%; under setting [31], 108%; under setting [32], 98.2%; under setting [33], 106%; under setting [34], 104%; under setting [35], 116%.
